{"source": "patent US5677148A", "about": "(priority 1995, dated 1997)", "test_system": "A431 cells", "assay": "Sensitivity of DAB-EGF chimeric toxin cytotoxicity to chloroquine ([3H]leucine incorporation)", "settings": "for activity at 10 µM: Homo sapiens; for Percent of Control Incorporation: 20-hour incubation", "note": "Like-named read-outs stand apart in the source and are kept apart here.", "description": "To determine if the cytotoxicity of DAB486 EGF and DAB389 EGF is also dependent upon the same pathway, A431 cells were plated in sextuplicate wells of 96 well plates containing DAB486 EGF, DAB389 EGF or DMEM+10% FCS in the absence or presence of chloroquine (10^-5 M) (Sigma). […] Following a 20-hour incubation at 37° C., the cells were labeled with [^3 H] leucine, trypsinized, harvested onto glass fiber filter mats and counted.", "data": [{"compound": "CCN(CC)CCCC(C)Nc1ccnc2cc(Cl)ccc12", "note": "(stereo not shown) [Chloroquine]", "values": [{"measurement": "activity at 10 µM", "setting": "A-431, read-out: Percent of Control Incorporation, chloroquine 10^-5 M, DAB389 EGF concentration 0, 20-hour incubation at 37° C., [3H]leucine, mean of three experiments", "result": 73, "unit": "%"}, {"measurement": "activity at 10 µM", "setting": "A-431, read-out: Percent of Control Incorporation, chloroquine 10^-5 M, DAB486 EGF concentration 0, 20-hour incubation at 37° C., [3H]leucine, mean of three experiments", "result": 86, "unit": "%"}, {"measurement": "Percent of Control Incorporation", "setting": "chloroquine 10^-5 M with DAB389 EGF 10^-11 M, [3H]leucine (no addition: 4)", "result": 61, "unit": "%"}, {"measurement": "Percent of Control Incorporation", "setting": "chloroquine 10^-5 M with DAB389 EGF 10^-12 M, [3H]leucine (no addition: 57)", "result": 100, "unit": "%"}, {"measurement": "Percent of Control Incorporation", "setting": "chloroquine 10^-5 M with DAB486 EGF 10^-8 M, [3H]leucine (no addition: 5)", "result": 60, "unit": "%"}, {"measurement": "Percent of Control Incorporation", "setting": "chloroquine 10^-5 M with DAB486 EGF 10^-9 M, [3H]leucine (no addition: 25)", "result": 96, "unit": "%"}, {"measurement": "Effect on the cytotoxicity of DT-EGF chimeric toxins", "setting": "chloroquine 10^-5 M, A431 cells, DAB486 EGF or DAB389 EGF", "result": "blocks the cytotoxicity"}]}]}
